These results are taken from patent publication US20040033276A1, “Coating composition for cereals having a preventive or treating effect on diabetes and cereals coated thereby” (priority 2002, published 2004).

In the assay the test system is α-glucosidase. Put plainly: Inhibition of α-glucosidase by extracts of herb medicine. It counts as biochemical. Conditions: 0.1 ml extract. Here is the method: Inhibitory activities of various herb extracts on the activity of α-glucosidase, which catalyzes the digestion of a polysaccharide to monosaccharides, were examined as follows. Extracts of various herb medicines listed in Table 4 below were prepared in accordance with the method of Reference Example 2. Added to 0.27 ml of 2 mM substrate (p-nitrophenyl-α-D-glucopyranoside, Sigma, U.S.A.) were 0.03 ml of α-glucosidase(Sigma, U.S.A.), 0.2 ml of 20 mM phosphate buffer (pH 7.0) and 0.1 ml of respective extracts obtained above. The resulting mixture was incubated in a 37° C. thermostat(Vision Science, Korea) for 30 minutes, and 0.5 ml of 1 M glycine-NaOH (pH 9.0) was added thereto to stop the reaction. […] Negative control was treated with distilled water instead of the herb extract, and positive control, with acarbose(Glucobay™, Bayer) and DNJ (Deoxynojirimycin, Dep. Seruculture & Entomology, NIAST), which are representative α-glucosidase inhibitors. Activities of the respective extracts for inhibiting α-glucosidase were calculated by the following equation and the result is shown in Table 4. Inhibition (%)=(1−Absorbance of a sample/Absorbance of the negative control)×100

For the compound `OC[C@H]1NC[C@H](O)[C@@H](O)[C@@H]1O` [DNJ, Deoxynojirimycin], the “Inhibition (%)” value (relative to negative control) is 80.79%. This compound also gave an Absorbance (405 nm, 37° C., 30 minutes) of 0.7641 ± 0.0021.
